Patent US20050245520A1, “2-Phenylpyridin-4-yl derivatives as alk5 inhibitors” (priority 2002, published 2005)

Tested on: TGF-β signalling (PAI-1 promoter-luciferase in HepG2 cells)
Assay: Cellular transcriptional assay: PAI-1 promoter firefly luciferase reporter in cells exposed to TGF-β
Assay type: cell-based
Details: 500 μM CPO in presence of TGF-β; relative to TGF-β only
Procedure: Assay 1 (Cellular Transcriptional Assay)
The assay was performed in HepG2 cells stably transfected with the PAI-1 promoter (known to be a strong TGF-β responsive promoter) linked to a luciferase (firefly) reporter gene. The compounds were selected on their ability to inhibit luciferase activity in cells exposed to TGF-β. In addition, cells were transfected with a second luciferase (Renilla) gene which was not driven by a TGF-β responsive promoter and was used as a toxicity control.
96 well microplates were seeded, using a multidrop apparatus, with the stably transfected cell line at a concentration of 35000 cells per well in 200 μl of serum-containing medium. These plates were placed in a cell incubator.
18 to 24 hours later (Day 2), cell-incubation procedure was launched. Cells were incubated with TGF-β and a candidate compound at concentrations in the range 50 nM to 10 μM (final concentration of DMSO 1%). The final concentration of TGF-β (rhTGFβ-1) used in the test was 1 ng/mL. Cells were incubated with a candidate compound 15-30 mins prior to the addition of TGF-β. The final volume of the test reaction was 150 μl. Each well contained only one candidate compound and its effect on the PAI-1 promoter was monitored.
Columns 11 and 12 were employed as controls. Column 11 contained 8 wells in which the cells were incubated in the presence of TGF-β, without a candidate compound. Column 11 was used to determine the ‘reference TGF-β induced firefly luciferase value’ against which values measured in the test wells (to quantify inhibitory activity) were compared. […]
12 to 18 hours later (day 3), the luciferase quantification procedure was launched. […] Following agitation (15 to 30 mins), luciferase activities of the plates were read in a dual-injector luminometer (BMG lumistar). For this purpose, 50 μl of luciferase assay reagent and 50 μl of ‘Stop & Glo’ buffer were injected sequentially to quantify the activities of both luciferases. […] For each of the compounds tested, a concentration response curve was constructed from which an IC50 value was determined graphically.

Row | SMILES | firefly and renilla luciferase activities (toxicity control)
1 | O=C1C=CCC1 [CPO, Cyclopentenone, reference compound] | around 50%

Tested on: not given
Assay: not given
Details: not given

Row | SMILES | melting point [°C]
2 | Cc1cccc(-c2nc3ccccn3c2-c2ccnc(-c3ccc(NS(=O)(=O)C(F)(F)F)cc3)c2)n1 [Example 53, 2-(6-methyl-pyridin-2-yl)-3-{2-[4-(trifluoromethylsulfonylamino)phenyl]-pyridin-4-yl}-imidazo[1,2-a]pyridine] | 135
3 | CN1CCN(c2ccc(-c3cc(-c4c(-c5ccccn5)nc5ccccn45)ccn3)cc2)CC1 [Example 55, 3-{2-[4-(4-methylpiperazin-1-yl)-phenyl]-pyridin-4-yl}-2-pyridin-2-yl-imidazo[1,2-a]pyridine] | 150
4 | Cc1cccc(-c2nc3ccccn3c2-c2ccnc(-c3ccc(CN4CCOCC4)cc3)c2)n1 [Example 56, 2-(6-methyl-pyridin-2-yl)-3-[2-(4-(morpholin-4-ylmethyl)phenyl)-pyridin-4-yl]-imidazo[1,2-a]pyridine] | 156
5 | Cc1cccc(-c2n[nH]cc2-c2ccnc(-c3ccc(Cl)cc3)c2)n1 [Example 5] | 190
6 | COc1ccc(-c2cc(-c3c(-c4ccccn4)nc4ccccn34)ccn2)cc1 [Example 34, 3-[2-(4-methoxyphenyl)-pyridin-4-yl]-2-pyridin-2-yl-imidazo[1,2-a]pyridine] | 222
7 | Cc1cccc(-c2cn[nH]c2-c2ccnc(-c3ccc(C(=O)NC4CCOCC4)cc3)c2)n1 [Example 18, 3-[2-(4-((tetrahydropyran-4-yl)aminocarbonyl)phenyl)pyridin-yl]-4-[6-methylpyridin-2-yl]-1H-pyrazole] | 170
8 | CCS(=O)(=O)c1ccc(-c2cc(-c3c[nH]nc3-c3cccc(C)n3)ccn2)cc1 [Example 2, 2-[4-(Ethylsulfonyl)phenyl]-4-[3-(6-methylpyridin-2-yl)-1H-pyrazol-4-yl]pyridine] | 244
9 | COCCCNC(=O)c1ccc(-c2cc(-c3c(-c4cccc(C)n4)nc4ccccn34)ccn2)cc1 [Example 67, 2-(6-methyl-pyridin-2-yl)-3-{2-[4-((3-methoxypropylamino)carbonyl)phenyl]-pyridin-4-yl}-imidazo[1,2-a]pyridine] | 165
10 | Cc1cccc(-c2n[nH]cc2-c2ccnc(-c3ccc(S(C)(=O)=O)cc3)c2)n1 [Example 7] | 232 to 234
11 | Cc1cccc(-c2n[nH]cc2-c2ccnc(-c3ccc(C(=O)NC4CCOCC4)cc3)c2)n1 [Example 14, 4-{4-[3-(6-methylpyridin-2-yl)-1H-pyrazol-4-yl]pyridin-2-yl}-N-(tetrahydro-2H-pyran-4-yl)benzamide] | 148
12 | Cc1cccc(-c2nc3c(C)cccn3c2-c2ccnc(-c3ccc(OCC(N)=O)cc3)c2)n1 [Example 78, 8-methyl-2-(6-methyl-pyridin-2-yl)-3-{2-[4-(aminocarbonylmethyloxyl)phenyl]-pyridin-4-yl}-imidazo[1,2-a]pyridine] | 183
13 | Cc1cccc(-c2n[nH]cc2-c2ccnc(-c3ccc(OC(F)(F)F)cc3)c2)n1 [Example 4] | 131
14 | Cc1cccc(-c2n[nH]cc2-c2ccnc(-c3ccc(C#N)cc3)c2)n1 [Example 3] | 198
15 | c1ccc(-c2nc3ccccn3c2-c2ccnc(-c3ccc(N4CCOCC4)cc3)c2)nc1 [Example 54, 3-[2-(4-(morpholin-4-yl)-phenyl)-pyridin-4-yl]-2-pyridin-2-yl-imidazo[1,2-a]pyridine] | 145
16 | Cc1ccn2c(-c3ccnc(-c4ccc(OCc5cn(C)cn5)cc4)c3)c(-c3cccc(C)n3)nc2c1 [Example 75, 7-methyl-2-(6-methyl-pyridin-2-yl)-3-{2-[4-((1-methyl-imidazol-4-yl)methyloxy)phenyl]-pyridin-4-yl}-imidazol[1,2-a]pyridine] | 217
17 | Cc1ccn2c(-c3ccnc(-c4ccc(OCC(N)=O)cc4)c3)c(-c3cccc(C)n3)nc2c1 [Example 77, 7-methyl-2-(6-methyl-pyridin-2-yl)-3-{2-[4(aminocarbonylmethyloxy)phenyl]-pyridin-4-yl}-imidazo[1,2-a]pyridine] | 213
18 | Cc1cccc(-c2c[nH]nc2-c2ccnc(-c3ccc(CN4CCOCC4)cc3)c2)n1 [Example 21] | 128
19 | Cc1cccc(-c2c[nH]nc2-c2ccnc(-c3ccc(N4CCOCC4)cc3)c2)n1 [Example 20] | 210
20 | Cc1cccc(-c2nc3ccccn3c2-c2ccnc(-c3ccc(C(=O)N4CCOCC4)cc3)c2)n1 [Example 66, 2-(6-methyl-pyridin-2-yl)-3-{2-[4-((morpholin-4-yl)carbonyl)phenyl]-pyridin-4-yl}-imidazo[1,2-a]pyridine] | 110
21 | Cc1cccc(-c2nc3ccccn3c2-c2ccnc(-c3ccc(OCc4cn(C)cn4)cc3)c2)n1 [Example 76, 2-(6-methyl-pyridin-2-yl)-3-{2-[4-((1-methyl-imidazol-4-yl)methyloxy)phenyl]-pyridin-4-yl}-imidazo[1,2-a]pyridine] | 120
22 | Cc1cccc(-c2n[nH]cc2-c2ccnc(-c3ccc(OCc4cn(C)cn4)cc3)c2)n1 [Example 1, 2-{4-[(1-methyl-1H-imidazol-4-yl)methoxy]phenyl}-4-[3-(6-methylpyridin-2-yl)-1H-pyrazol-4-yl]pyridine] | 191

The next lines start with the values.

Row | melting point [°C] | SMILES
23 | 187 | Cc1cccc(-c2[nH]c(C(C)(C)C)nc2-c2ccnc(-c3ccc(CN(C)C)cc3)c2)n1 [Example 101, (4-{4-[2-tert-Butyl-5-(6-methyl-pyridin-2-yl)-1H-imidazol-4-yl]-pyridin-2-yl}-benzyl)-dimethyl-amine]
24 | 246 | Cc1cccc(-c2sc(N)nc2-c2ccnc(-c3ccc(N4CCOCC4)cc3)c2)n1 [Example 132]
25 | 174 | Cc1cccc(-c2[nH]c(C(C)(C)C)nc2-c2ccnc(-c3ccc(C(=O)NC4CCOCC4)cc3)c2)n1 [Example 81]
26 | 236 | Cc1cccc(-c2sc(N)nc2-c2ccnc(-c3ccc(CN4CCOCC4)cc3)c2)n1 [Example 131]
27 | 246 | Nc1nc(-c2ccccn2)c(-c2ccnc(-c3ccc(N4CCOCC4)cc3)c2)s1 [Example 111]
28 | 210 | Cc1cccc(-c2[nH]c(C(C)(C)C)nc2-c2ccnc(-c3ccc(OCC(N)=O)cc3)c2)n1 [Example 107, 2-{4-[4-(2-tert-Butyl-5-{6-methyl}pyridin-2-yl-1H-imidazol-4-yl)-pyridin-2-yl]-phenoxy}-acetamide]
29 | 190 | Cc1cccc(-c2nc3ccccn3c2-c2ccnc(-c3ccc(N4CCOCC4)cc3)c2)n1 [Example 79, 2-(6-methyl-pyridin-2-yl)-3-{2-[4-(morpholin-4-yl)phenyl]-pyridin-4yl}-imidazo[1,2-a]pyridine]
30 | 222 | Cc1cccc(-c2sc(N)nc2-c2ccnc(-c3ccc(Cl)cc3)c2)n1 [Example 125]
31 | 219 | CCS(=O)(=O)c1ccc(-c2cc(-c3nc(N)sc3-c3cccc(C)n3)ccn2)cc1 [Example 127]
32 | 210 | Cc1cccc(-c2sc(N)nc2-c2ccnc(-c3ccc(CN(C)C)cc3)c2)n1 [Example 137]
33 | 232 | Cc1cccc(-c2sc(N)nc2-c2ccnc(-c3ccc(OC(F)(F)F)cc3)c2)n1 [Example 126]
34 | 156 | Cn1cnc(COc2ccc(-c3cc(-c4nc(C(C)(C)C)[nH]c4-c4ccccn4)ccn3)cc2)c1 [Example 109, 4-(2-tert-Butyl-5-pyridin-2-yl-1H-imidazol-4-yl)-2-[4-(1-methyl-1H-imidazol4-ylmethoxy)-phenyl]-pyridine]
35 | 191 | Cc1cccc(-c2sc(N)nc2-c2ccnc(-c3ccc(OCC(N)=O)cc3)c2)n1 [Example 134]
36 | 168 | Cc1cccc(-c2[nH]c(C(C)(C)C)nc2-c2ccnc(-c3ccc(OCCN4CCCC4)cc3)c2)n1 [Example 108, 4-(2-tert-Butyl-5-{6-methyl}-pyridin-2-yl-1H-imidazol-4-yl)-2-[4-(2-pyrrolidin-1-yl-ethoxy)-phenyl]-pyridine]
37 | 208 | Cc1ccn2c(-c3ccnc(-c4ccc(N5CCOCC5)cc4)c3)c(-c3cccc(C)n3)nc2c1 [Example 80, 7-methyl-2-(6-methyl-pyridin-2-yl)-3-{2-[4-(morpholin-4-yl)phenyl]-pyridin-4-yl}-imidazo[1,2-a]pyridine]
